Experimental data reported in patent US6376673B1, “Piperidine derivatives as neurotransmitter re-uptake inhibitors” (Neurosearch A/S, priority 1997, dated 2002).

Target: T1, dopamine transporter (Rattus norvegicus, UniProt P23977)
T1 construct: Corpus striatum from male Wistar rats (150-200 g) is homogenized; from tissue; host or cells: rat corpus striatum membrane pellet
Experiment: In vitro inhibition of 3H-WIN 35428 binding
Details: corpus striatum membranes of male Wistar rats; 1 nM 3H-WIN 35428, 60 min at 2° C.; read-out: In Vitro IC50 (inhibition of specific binding of 3H-WIN 35428)
Description: The compounds of the present invention have been tested for their ability to bind to the dopamine transporter in the following tests for in vitro inhibition of ^3H-WIN 35428.
In vitro Inhibition of ^3H-WIN 35428 Binding
Dopamine transporters/uptake sites on nerve terminals presumably function to terminate neuronal signaling by removing dopamine from the synaptic cleft. The activity or presence of the dopamine transporter integral protein can be measured in vitro with synaptosomal uptake of ^3H-dopamine or membrane binding assays with ^3H-ligands known to bind to the transporter.
Numerous ligands of several structural types have been reported to bind at the dopamine uptake site, but it remains questionable whether their binding sites are identical to that of cocaine. A structural analog og cocaine, ^3H-WIN 35428, binds selectively and with high affinity to the dopamine transporter complex.
Tissue preparation: Preparations are performed at 0-4° C. unless otherwise indicated. […]
Assay: Aliquots of 0.5 ml tissue are added to 25 ml of test solution and 25 ml of ^3H-WIN 35428 (1 nM, final concentration), mixed and incubated for 60 min at 2° C. Non-specific binding is determined using cocaine (30 mM, final concentration). […] The amount of radioactivity on the filters is determined by conventional liquid scintillation counting. […]

T1 sequence (P23977 whole entry): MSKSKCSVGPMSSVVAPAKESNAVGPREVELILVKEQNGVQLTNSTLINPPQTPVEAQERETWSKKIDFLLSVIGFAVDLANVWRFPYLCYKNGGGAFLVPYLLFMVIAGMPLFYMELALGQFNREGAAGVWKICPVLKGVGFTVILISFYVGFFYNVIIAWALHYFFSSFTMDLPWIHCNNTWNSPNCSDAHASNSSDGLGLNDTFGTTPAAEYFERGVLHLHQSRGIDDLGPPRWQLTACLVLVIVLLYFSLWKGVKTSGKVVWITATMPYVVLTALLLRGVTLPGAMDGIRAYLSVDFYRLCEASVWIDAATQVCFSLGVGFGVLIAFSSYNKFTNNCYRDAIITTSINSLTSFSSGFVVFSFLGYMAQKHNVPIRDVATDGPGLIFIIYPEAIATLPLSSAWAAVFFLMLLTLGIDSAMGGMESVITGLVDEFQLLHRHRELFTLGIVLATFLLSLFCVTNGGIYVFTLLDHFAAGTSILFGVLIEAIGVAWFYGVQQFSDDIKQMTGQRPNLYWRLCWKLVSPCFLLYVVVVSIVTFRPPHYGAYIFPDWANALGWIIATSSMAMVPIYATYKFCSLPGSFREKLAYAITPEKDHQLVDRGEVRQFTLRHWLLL

Structure (SMILES): CON=CC1CN(C)CCC1c1ccc(Cl)c(Cl)c1 (stereo not shown) [1-Metyl-3-methoxyiminomethyl-4-(3,4-dichlorophenyl)piperidine]
- IC50: 0.016 µM
